According to ChEMBL document CHEMBL4627262, “VEGFR-2 inhibiting effect and molecular modeling of newly synthesized coumarin derivatives as anti-breast cancer agents” (Bioorg Med Chem, 2020):
Active and inactive are the calls of the source. The calls are words filed in the database; no cut-off is given here.

Experiments:
MCF7 [1] = experiment: Cytotoxicity against human MCF7 cells assessed as inhibition of cell proliferation after 3 days by MTT assay; format: functional, cell-based; conditions: MCF7, 72 h
PC-3 = experiment: Cytotoxicity against human PC3 cells assessed as inhibition of cell proliferation after 3 days by MTT assay; format: functional, cell-based
[2] = molecular target: Vascular endothelial growth factor receptor 2 (Homo sapiens, UniProt P35968); experiment: Inhibition of VEGFR2 in human MCF7 cells by horseradish peroxidase-coupled TMB substrate based ELISA; format: cell-based
Vascular endothelial growth factor receptor 2, sequence (P35968 whole entry): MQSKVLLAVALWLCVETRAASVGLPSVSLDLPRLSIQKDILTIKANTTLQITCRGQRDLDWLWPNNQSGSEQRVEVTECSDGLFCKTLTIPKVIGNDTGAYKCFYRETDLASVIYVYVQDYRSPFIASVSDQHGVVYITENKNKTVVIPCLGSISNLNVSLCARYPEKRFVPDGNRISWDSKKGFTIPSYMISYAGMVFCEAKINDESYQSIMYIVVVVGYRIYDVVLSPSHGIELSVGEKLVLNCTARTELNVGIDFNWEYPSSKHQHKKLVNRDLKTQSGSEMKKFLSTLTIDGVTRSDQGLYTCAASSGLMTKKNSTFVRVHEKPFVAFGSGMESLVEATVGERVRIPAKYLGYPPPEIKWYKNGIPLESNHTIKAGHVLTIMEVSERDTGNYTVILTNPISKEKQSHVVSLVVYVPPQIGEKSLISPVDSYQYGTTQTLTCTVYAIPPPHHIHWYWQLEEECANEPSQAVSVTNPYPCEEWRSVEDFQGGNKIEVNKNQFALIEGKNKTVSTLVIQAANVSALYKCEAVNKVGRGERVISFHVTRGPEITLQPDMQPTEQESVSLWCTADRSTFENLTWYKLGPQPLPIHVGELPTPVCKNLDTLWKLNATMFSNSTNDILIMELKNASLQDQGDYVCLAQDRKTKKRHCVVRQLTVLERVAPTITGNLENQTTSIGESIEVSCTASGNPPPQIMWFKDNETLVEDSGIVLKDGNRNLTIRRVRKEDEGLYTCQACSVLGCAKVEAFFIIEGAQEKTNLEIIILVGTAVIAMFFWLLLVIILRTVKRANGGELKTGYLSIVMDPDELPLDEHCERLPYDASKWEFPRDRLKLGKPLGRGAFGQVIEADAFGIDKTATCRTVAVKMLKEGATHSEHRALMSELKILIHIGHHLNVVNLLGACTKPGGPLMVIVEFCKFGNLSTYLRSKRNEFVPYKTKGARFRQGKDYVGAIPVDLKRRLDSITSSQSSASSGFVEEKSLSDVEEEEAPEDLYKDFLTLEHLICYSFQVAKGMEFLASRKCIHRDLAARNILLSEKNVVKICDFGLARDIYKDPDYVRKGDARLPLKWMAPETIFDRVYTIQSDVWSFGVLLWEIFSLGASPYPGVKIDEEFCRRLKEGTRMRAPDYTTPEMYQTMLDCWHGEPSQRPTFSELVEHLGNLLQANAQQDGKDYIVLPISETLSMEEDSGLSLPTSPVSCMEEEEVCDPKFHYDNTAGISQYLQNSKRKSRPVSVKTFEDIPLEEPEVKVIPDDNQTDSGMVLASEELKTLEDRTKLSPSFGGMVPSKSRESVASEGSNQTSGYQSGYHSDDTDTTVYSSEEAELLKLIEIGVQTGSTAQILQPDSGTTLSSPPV

MCF7 [3] = experiment: Induction of apoptosis in human MCF7 cells assessed as necrotic cells at after 48 hrs by Annexin V-FITC/propidium iodide staining based flow cytometric analysis (reference value: 0.41 %); format: functional
MCF7 [4] = experiment: Induction of apoptosis in human MCF7 cells assessed as up regulation of caspase 9 expression by measuring caspase 9 level by ELISA (reference value: 1.223 ng/ml); format: functional
MCF7 [5] = experiment: Induction of apoptosis in human MCF7 cells assessed as early apoptotic cells after 48 hrs by Annexin V-FITC/propidium iodide staining based flow cytometric analysis (reference value: 1.56 %); format: functional
MCF7 [6] = experiment: Induction of apoptosis in human MCF7 cells assessed as late apoptotic cells after 48 hrs by Annexin V-FITC/propidium iodide staining based flow cytometric analysis (reference value: 0.3 %); format: functional
MCF7 [7] = experiment: Cell cycle arrest in human MCF7 cells assessed as accumulation at G2/M phase after 48 hrs by propidium iodide/RNase A staining based flow cytometry analysis; format: functional
MCF7 [8] = experiment: Cell cycle arrest in human MCF7 cells assessed as induction of preG1 apoptosis after 48 hrs by propidium iodide/RNase A staining based flow cytometry analysis; format: functional

Structure (SMILES) | IC50 (MCF7 [1]) | inhibition (PC-3) | further results
Cc1cc(=O)oc2cc(OCC(=O)NNC(=O)CN3CCN(C)CC3)ccc12 | 6.68 µM | inactive | –
Cc1cc(=O)oc2cc(OCC(=O)NNC(=O)c3ccccc3)ccc12 | 7.89 µM | inactive | –
Cc1cc(=O)oc2cc(OCC(=O)N/N=C/c3ccc(F)cc3)ccc12 | 9.78 µM | inactive | –
O=c1oc2ccc(S(=O)(=O)Nc3nc4ccccc4[nH]3)cc2cc1Br | 3.65 µM | inactive | –
Cc1cc(=O)oc2cc(OCC(=O)Nn3c(=O)[nH]c4ccccc4c3=O)ccc12 | 1.65 µM | inactive | IC50 [2]: 0.66 µM
CN[C@@H]1C[C@H]2O[C@@](C)([C@@H]1OC)n1c3ccccc3c3c4c(c5c6ccccc6n2c5c31)C(=O)NC4 [STAUROSPORINE] | – | – | Activity (MCF7 [3]): 2.33%; Activity (MCF7 [4]): 8.41 ng/mL; Activity (MCF7 [5]): 8.16%; Activity (MCF7 [6]): 11.27%
Cc1cc(=O)oc2cc(OCC(=O)N/N=C/c3ccc([N+](=O)[O-])cc3)ccc12 | 5.59 µM | inactive | –
Cc1cc(=O)oc2cc(OCC(=O)NN(C(=O)c3ccncc3)C(=O)c3ccncc3)ccc12 | 8.68 µM | inactive | –
O=c1oc2ccc(S(=O)(=O)N3CCOCC3)cc2cc1Br | 13.2 µM | inactive | –
Cc1cc(=O)oc2ccc(N3C(=O)c4ccccc4C3=O)cc12 | 4.17 µM | inactive | –
O=c1oc2ccc(S(=O)(=O)N3CCCCC3)cc2cc1Br | 2.07 µM | inactive | –
Cc1ccc(/C=N/NC(=O)COc2ccc3c(C)cc(=O)oc3c2)o1 | 3.19 µM | inactive | –
Cc1cc(=O)oc2cc(OCC(=O)NN3C(=O)C=CC3=O)ccc12 | 2.11 µM | inactive | –
Cc1cc(=O)oc2cc(OCC(=O)NN3C(=O)c4ccccc4C3=O)ccc12 | 14.7 µM | inactive | –
CN1CCN(S(=O)(=O)c2ccc3oc(=O)c(Br)cc3c2)CC1 | 31.4 µM | inactive | –
Cc1cc(=O)oc2cc(OCC(=O)N/N=C/c3ccc(N(C)C)cc3)ccc12 | 5.54 µM | inactive | –
Cc1cc(=O)oc2cc(OCC(=O)NNCc3ccccc3)ccc12 | 1.24 µM | inactive | Activity (MCF7 [3]): 1.92%; Activity (MCF7 [4]): 8.015 ng/mL; IC50 [2]: 0.36 µM; Activity (MCF7 [7]): Active; Activity (MCF7 [5]): 6.72%; Activity (MCF7 [6]): 17.78%; Activity (MCF7 [8]): Active
Cc1cc(=O)oc2ccc(NC(=O)c3ccccc3)cc12 | 4.6 µM | inactive | –
COc1cc(OC)c(CNS(=O)(=O)c2ccc3oc(=O)c(Br)cc3c2)c(OC)c1 | 5.76 µM | inactive | –
O=c1oc2ccc(S(=O)(=O)NCc3ccc4c(c3)OCO4)cc2cc1Br | 7.79 µM | inactive | –
Cc1cc(=O)oc2cc(OCC(=O)NNC(=O)CN3CCOCC3)ccc12 | 37.3 µM | inactive | –
